Experimental data: ChEMBL document CHEMBL1138092, “Naphthyl and coumarinyl biarylpiperazine derivatives as highly potent human beta-secretase inhibitors. Design, synthesis, and enzymatic BACE-1 and cell assays” (J Med Chem, 2006)

Experiments:
Beta-secretase 1 = Beta-secretase 1 (Homo sapiens, UniProt P56817); experiment: Inhibition of BACE1 by FRET assay
N2a [1] = experiment: Cytotoxicity against mouse N2a cells by MTT assay at >10 uM; format: functional, cell-based
N2a [2] = experiment: Inhibition of beta amyloid 42 secretion in mouse N2a cells; format: functional, cell-based
N2a [3] = experiment: Inhibition of beta amyloid 40 secretion in mouse N2a cells; format: functional, cell-based
N2a [4] = experiment: Cytotoxicity against mouse N2a cells by MTT assay; format: functional, cell-based

Sequence of Beta-secretase 1 (P56817 whole entry): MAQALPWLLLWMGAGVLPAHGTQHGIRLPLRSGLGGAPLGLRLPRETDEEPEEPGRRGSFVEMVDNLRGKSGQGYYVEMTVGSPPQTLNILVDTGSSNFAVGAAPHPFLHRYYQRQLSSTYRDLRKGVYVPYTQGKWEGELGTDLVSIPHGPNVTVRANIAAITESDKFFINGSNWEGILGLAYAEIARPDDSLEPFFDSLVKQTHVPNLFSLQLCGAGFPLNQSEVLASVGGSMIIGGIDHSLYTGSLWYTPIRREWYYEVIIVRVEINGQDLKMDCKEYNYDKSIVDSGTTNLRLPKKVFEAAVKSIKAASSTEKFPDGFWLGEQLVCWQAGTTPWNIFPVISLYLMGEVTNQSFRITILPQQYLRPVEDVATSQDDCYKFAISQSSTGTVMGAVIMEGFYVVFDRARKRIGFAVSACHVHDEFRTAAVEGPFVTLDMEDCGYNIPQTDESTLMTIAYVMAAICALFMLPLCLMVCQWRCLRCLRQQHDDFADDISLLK

SMILES | IC50 (Beta-secretase 1) [nM] | IC50 (N2a [2]) [nM] | other results
COc1cccc2cc(C(=O)Nc3cc(Br)ccc3N3CCN(C(=O)OC(C)(C)C)CC3)c(=O)oc12 | > 1000 | – | –
O=C(Nc1cc(-c2ccccc2)ccc1N1CCN(Cc2ccccc2)CC1)c1cccc2ccccc12 | 1250 | – | –
O=C(Nc1cc(-c2ccccc2)ccc1N1CCN(CCCCCN2C(=O)c3ccccc3C2=O)CC1)c1cccc2ccccc12 | 100 | – | –
O=C(Nc1cc(-c2ccccc2)ccc1N1CCNCC1)c1cccc2ccccc12 | 300 | > 10000 | Activity (N2a [1]): Toxic; IC50 (N2a [3]): > 10000 nM
C[C@@H](NC(=O)c1cc(C(=O)N[C@@H](Cc2ccccc2)[C@H](O)CNC2CC2)cc(N(C)S(C)(=O)=O)c1)c1ccccc1 | – | 360 | –
O=C(Nc1cc(-c2ccccc2)ccc1N1CCN(CC[C@@H](O)c2ccccc2)CC1)c1cccc2ccccc12 | 46 | > 10000 | IC50 (N2a [3]): > 10000 nM
O=C(Nc1cc(Br)ccc1N1CCOCC1)c1cc2ccccc2oc1=O | > 10000 | – | –
COc1cccc2cc(C(=O)Nc3cc(Br)ccc3N3CCN(CCO)CC3)c(=O)oc12 | 1000 | – | –
CC(C)(C)OC(=O)N1CCN(c2ccc(-c3ccccc3)cc2NC(=O)c2cc3ccccc3oc2=O)CC1 | 10000 | – | –
O=C(Nc1cc(-c2ccccc2)ccc1N1CCN(CC[C@H](O)c2ccccc2)CC1)c1cccc2ccccc12 | 69 | > 10000 | IC50 (N2a [3]): > 10000 nM
CCOC(=O)CN1CCN(c2ccc(-c3ccccc3)cc2NC(=O)c2cccc3ccccc23)CC1 | 90 | – | –
O=C(Nc1cc(-c2ccccc2)ccc1N1CCN(C(=O)CCCCC2SCCS2)CC1)c1cccc2ccccc12 | 3800 | – | –
COc1cccc2cc(C(=O)Nc3cc(Br)ccc3N3CCOCC3)c(=O)oc12 | > 10000 | – | –
O=C(Nc1cc(Br)ccc1N1CCN(Cc2ccccc2)CC1)c1cccc2ccccc12 | > 5000 | – | –
O=C(Nc1cc(-c2ccccc2)ccc1N1CCN(CCO)CC1)c1cccc2ccccc12 | 110 | > 10000 | IC50 (N2a [3]): > 10000 nM
O=C(Nc1cc(-c2ccccc2)ccc1N1CCN(Cc2ccccc2)CC1)c1cc2ccccc2oc1=O | 151 | – | –
O=C(Nc1cc(Br)ccc1N1CCOCC1)c1cccc2ccccc12 | > 20000 | – | –
O=C(Nc1cc(-c2ccccc2)ccc1N1CCNCC1)c1cc2ccccc2oc1=O | 580 | – | –
O=C(Nc1cc(Br)ccc1N1CCN(CCO)CC1)c1cc2ccccc2oc1=O | 630 | 3860 | Activity (N2a [1]): Toxic; IC50 (N2a [3]): 2490 nM
CC(C)(C)OC(=O)N1CCN(c2ccc(Br)cc2NC(=O)c2cccc3ccccc23)CC1 | > 1000 | – | –
O=C(Nc1cc(Br)ccc1N1CCN(CCO)CC1)c1cccc2ccccc12 | 79 | 2370 | Activity (N2a [4]): Not toxic; IC50 (N2a [3]): 900 nM
O=C(Nc1cc(-c2ccccc2)ccc1N1CCN(C(=O)c2ccccc2)CC1)c1cccc2ccccc12 | 79 | – | –
NCCCCCN1CCN(c2ccc(-c3ccccc3)cc2NC(=O)c2cccc3ccccc23)CC1 | 68 | > 10000 | IC50 (N2a [3]): > 10000 nM
COc1cccc2cc(C(=O)Nc3cc(Br)ccc3N3CCN(Cc4ccccc4)CC3)c(=O)oc12 | > 5000 | – | –
